# Values quoted from earlier work as cited in US7858126B2 (Trinity Laboratories Inc., priority 2006, dated 2010).
# Experiments:
# skin papillomas = settings: mice, DMBA-initiated, TPA-promoted
# [1] = tested on: ornithine decarboxylase (ODC); settings: mice
substance,measurement,setting,value
santalol,decrease of papilloma incidence,skin papillomas,67%
same,decrease of papilloma multiplicity,skin papillomas,96%
same,decrease of TPA-induced ODC activity,[1],70%
